The record followed here is patent publication US12595269B2, “Morpholine-like monoamine releasers” (Solvonis Therapeutics Ireland Holdings Limited, priority 2022, dated 2026).

The structures appear in SMILES notation. Entries after “also recorded” stand apart in the source; their conditions may differ.

The nature of series [1]: Apparent permeability (Papp AB) in MDCKII cells. The settings on record: dog, MDCK; pH 7.4, apical to basolateral, 60 min. Format: in vitro ADME, Canine. The procedure: (§1) Methods and Procedure: This study was conducted in compliance with previously described procedures to assure data integrity and adherence to GLP regulations. The experiments described herein were designed to evaluate the apparent permeability (Papp) of test compounds at pH 7.4. Additionally, the MDCKII-MDR1 cell line (Madin-Darby Canine Kidney clone II cell line heterologously expressing the human P-glycoprotein transporter) and mock cell line MDCKII were used to determine whether a compound acted as a P-gp substrate, in the absence and in the presence of the potent P-gp inhibitor. Test control items (digoxin, metoprolol, and atenolol) and control P-gp inhibitor (GF120918) stock solution were prepared in DMSO. Bidirectional assays (Apical to Basolateral [AB] and Basolateral to Apical [BA]) were run, in both the absence and presence of P-gp inhibitor GF120918 in MDCKII-MDR1 and mock cell line MDCKII, using as transport buffer HBSSH at a pH of 7.4 (n=3).
(§2) Compounds were tested at a single concentration (i.e. at 3 or 10 μM) at one time point (i.e. 60 min). Alternative concentrations or time-points may also be investigated. As reference compounds, digoxin (P-gp substrate), atenolol (low permeable compound) and metoprolol (high permeable compound) were included at a single concentration (e.g., 10 or 25 μM) and at single time point (e.g., 60 min). Digoxin transport was evaluated in two directions (apical-to-basolateral [AB] and basolateral-to-apical [BA]) in the absence and presence of GF120918 or in mock cells, MDCKII (n=3). Atenolol and metoprolol were only tested in the AB direction in absence of GF120918 or in mock cells, MDCKII (n=3). The integrity of the cell monolayer was evaluated after the permeability experiment using the paracellular permeability marker Lucifer yellow (LY) in the apical to basolateral direction in each well.
(§3) MDCKII or MDCKII-MDRI cells cultivated using DMEM (high glucose, GlutaMAX™ supplemented with pyruvate, 10% FBS HI and Pen/Strep) and seeded onto microporous PET (Polyethylene Terephthalate) membranes in HTS 96-Multiwell Insert plates at density of ˜175,000-245,000 cells/cm^2 (25000-35000 cells/well; 50 μL/well) in DMEM medium and incubated for 3-4 days at 37° C.-5% CO2. Medium was changed a day before the experiment.
(§4) Stock solutions of test items were prepared in DMSO at a concentration of 5 or 10 mM and stored at −20° C. until use. The potent P-gp inhibitor, GF120918 (stock solution 10 mM) and the reference controls digoxin, atenolol, metoprolol (stock solutions 3 or 10 mM) were prepared in DMSO and stored at −20° C. until use.
Donor working solutions of test items and reference controls will be prepared at a concentration of 10 or 25 μM, diluting the stock solutions in HBSSH. Receiver working solutions contained transport buffer only. […]
MDCKII and MDCKII-MDR1 cells were preincubated (37° C., 15 to 30 minutes) in receiver working solutions containing transport buffer on apical (A) and basolateral (B) sides. Following pre-incubation, test items and control items (digoxin) transport were measured in two directions (apical to basolateral [AB]) and basolateral to apical [BA]), and these directions were performed in triplicate sets of wells, in both the absence and presence of […] GF120918 or mock MDCKII cells. […] Transport of permeability reference controls, atenolol and metoprolol, were measured in one direction (apical to basolateral [AB]) (n=3). […]

The target of series [2] is T1, human P-glycoprotein (MDR1) (Homo sapiens, UniProt P08183).
T1 construct: expressed in transfected cells; host or cells: MDCKII (canine kidney)
Put plainly: P-gp substrate assessment, efflux ratio in MDCKII-MDR1 cells. Conditions: dog, MDCK-MDR1, pH 7.4; efflux ratio; P-gp substrate if ratio >2 and reduced by inhibitor; read-out: B/A ratio in MDCKII-MDR1 cells. The series is classed as in vitro ADME. The procedure: as §1, §2, §3, §4
(§5) Donor working solutions of test items and reference controls will be prepared at a concentration of 10 or 25 μM, diluting the stock solutions in HBSSH. Receiver working solutions contained transport buffer only. All working solutions were prepared such that the final concentration of DMSO was <1% (v/v). A donor working solution containing LY was also prepared in transport buffer at 100 µM.
(§6) MDCKII and MDCKII-MDR1 cells were preincubated (37° C., 15 to 30 minutes) in receiver working solutions containing transport buffer on apical (A) and basolateral (B) sides. Following pre-incubation, test items and control items (digoxin) transport were measured in two directions (apical to basolateral [AB]) and basolateral to apical [BA]), and these directions were performed in triplicate sets of wells, in both the absence and presence of […] GF120918 or mock MDCKII cells. For [AB] directional transport, 75 μL of donor working solution was added to the A (apical) compartment and 235 μL of receiver working solution was added to the B (basolateral) compartment. For [BA] directional transport, 235 μL donor working solution with test items or reference controls was added to the B compartment and 75 μL receiver working solution was added to the A compartment. Transport of permeability reference controls, atenolol and metoprolol, were measured in one direction (apical to basolateral [AB]) (n=3). […]

Series [3] has as its target T2, human P-glycoprotein transporter (Homo sapiens, UniProt P08183).
T2 construct: expressed in transfected cells; host or cells: MDCKII (canine kidney)
Described as above. Format: in vitro ADME. The settings on record: P-gp substrate classification, MDCKII-MDR1 cells. The procedure: as §1, §2, §3, §4, §5, §6

T2 sequence (P08183 whole entry): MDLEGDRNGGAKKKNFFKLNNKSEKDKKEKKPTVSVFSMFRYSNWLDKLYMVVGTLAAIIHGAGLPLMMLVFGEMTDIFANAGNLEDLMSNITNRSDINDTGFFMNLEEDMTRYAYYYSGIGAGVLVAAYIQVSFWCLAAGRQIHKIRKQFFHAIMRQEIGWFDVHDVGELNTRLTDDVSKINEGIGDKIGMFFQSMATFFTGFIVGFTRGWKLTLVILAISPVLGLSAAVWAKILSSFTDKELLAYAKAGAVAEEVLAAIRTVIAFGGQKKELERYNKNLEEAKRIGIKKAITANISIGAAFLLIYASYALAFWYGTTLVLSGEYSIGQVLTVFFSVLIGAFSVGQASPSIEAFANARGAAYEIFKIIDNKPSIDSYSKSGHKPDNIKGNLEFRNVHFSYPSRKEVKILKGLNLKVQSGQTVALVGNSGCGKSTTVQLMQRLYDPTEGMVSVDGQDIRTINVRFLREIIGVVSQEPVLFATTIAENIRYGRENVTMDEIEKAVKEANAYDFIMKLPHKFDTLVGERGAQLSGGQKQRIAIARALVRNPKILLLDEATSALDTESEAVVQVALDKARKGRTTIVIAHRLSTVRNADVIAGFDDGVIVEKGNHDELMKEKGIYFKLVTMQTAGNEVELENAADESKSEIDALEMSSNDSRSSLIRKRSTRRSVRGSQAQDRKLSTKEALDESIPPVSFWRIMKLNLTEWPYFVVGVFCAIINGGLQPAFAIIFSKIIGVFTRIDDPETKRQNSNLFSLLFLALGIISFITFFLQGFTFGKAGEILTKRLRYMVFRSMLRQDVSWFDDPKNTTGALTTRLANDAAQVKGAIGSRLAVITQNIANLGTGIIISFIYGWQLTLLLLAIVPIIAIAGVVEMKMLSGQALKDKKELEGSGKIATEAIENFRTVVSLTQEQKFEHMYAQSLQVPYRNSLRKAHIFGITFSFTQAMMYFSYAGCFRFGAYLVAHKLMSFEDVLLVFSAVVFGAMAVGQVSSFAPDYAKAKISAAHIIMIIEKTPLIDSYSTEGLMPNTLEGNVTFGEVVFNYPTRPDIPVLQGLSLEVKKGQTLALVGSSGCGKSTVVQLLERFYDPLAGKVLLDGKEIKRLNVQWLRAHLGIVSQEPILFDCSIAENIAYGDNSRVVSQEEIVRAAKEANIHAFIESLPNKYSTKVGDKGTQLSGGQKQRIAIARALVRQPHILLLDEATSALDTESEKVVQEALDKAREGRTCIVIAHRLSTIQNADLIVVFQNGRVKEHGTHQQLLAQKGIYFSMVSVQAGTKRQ
T1 sequence (P08183 whole entry): as above

A word on the Papp A→B: it is how fast a substance crosses the layer from the apical side. Take `Clc1ccc(C23CNC(CO2)C3)cc1Cl` (stereo not drawn) [522A, 1-(3,4-dichlorophenyl)-2-oxa-5-azabicyclo[2.2.1]heptane]: the Papp A→B at 60 min in series [1] worked out at 9.45 ×10⁻⁶ cm/s. The efflux ratio at 60 min in series [2] came to 0.83. For the same compound, in series [3], the “Substrate Classification” value is given as “not determined to be a substrate for P-gp; also recorded: pGP-NO”.

Turning to `Clc1ccc([C@@]23CN[C@@H](CO2)C3)cc1Cl` (single isomer, unassigned) [518A], the Papp A→B at 60 min in series [1] was determined as 17.3 ×10⁻⁶ cm/s. Moreover, in series [2], the efflux ratio at 60 min is 0.7. Further, in series [3], the “Substrate Classification” value was “not determined to be a substrate for P-gp; also recorded: pGP-NO”.

As for `Clc1ccc([C@]23CN[C@H](CO2)C3)cc1Cl` (single isomer, unassigned) [516A], in series [1], the Papp A→B at 60 min was 15.8 ×10⁻⁶ cm/s. For the same compound, the efflux ratio at 60 min in series [2] came to 0.73. In series [3], the “Substrate Classification” value is on record as “pGP-NO”.

In the case of `CNC(C)Cc1ccc2c(c1)OCO2` (stereo not drawn) [MDMA, reference compound], the Papp A→B at 60 min in series [1] came out at 14 ×10⁻⁶ cm/s. Further, the efflux ratio at 60 min in series [2] worked out at 1.5. The “Substrate Classification” value in series [3] was “not a P-gp substrate”.
